Laboratory results as given in ChEMBL document CHEMBL1201862, “PubChem BioAssay data set” (2004).
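Grown in 96-well plates, cells were treated for 48 hours with each compound at five concentrations. Insufficient inhibition: endpoint recorded as highest concentration tested. GI50 = concentration required for 50% inhibition of growth.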 Calls of active or inactive are those of the source. Cut-off read from the data, not from the text of the source: active = GI50 up to about 1.1 µM and inactive = higher.

What was measured:
Assay in all cases: NCI-60 cell line screen, 48 h
SW-620 = tested on: SW-620
SR = tested on: SR
SNB-78 = tested on: SNB-78
786-0 = tested on: 786-0
SNB-75 = tested on: SNB-75
UACC-62 = tested on: UACC-62
M19-MEL = tested on: M19-MEL
HCT-116 = tested on: HCT-116
XF498 = tested on: XF498
LOX IMVI = tested on: LOX IMVI
ACHN = tested on: ACHN
Malme-3M = tested on: Malme-3M
SNB-19 = tested on: SNB-19
HCC 2998 = tested on: HCC 2998
HT-29 = tested on: HT-29
SK-MEL-28 = tested on: SK-MEL-28
NCI-H226 = tested on: NCI-H226
NCI-H23 = tested on: NCI-H23
OVCAR-4 = tested on: OVCAR-4
OVCAR-5 = tested on: OVCAR-5
DLD-1 = tested on: DLD-1
DMS-114 = tested on: DMS-114
U-251 = tested on: U-251
UO-31 = tested on: UO-31
NCI-H460 = tested on: NCI-H460
EKVX = tested on: EKVX
HOP-62 = tested on: HOP-62
RPMI-8226 = tested on: RPMI-8226
SF-268 = tested on: SF-268
A498 = tested on: A498
A549 = tested on: A549
SN12C = tested on: SN12C
HL-60 = tested on: HL-60
IGROV-1 = tested on: IGROV-1
OVCAR-8 = tested on: OVCAR-8
SF-295 = tested on: SF-295
CCRF-CEM = tested on: CCRF-CEM
K562 = tested on: K562
KM12 = tested on: KM12
SK-OV-3 = tested on: SK-OV-3
RXF 631 = tested on: RXF 631
HOP-18 = tested on: HOP-18
M14 = tested on: M14
RXF 393 = tested on: RXF 393
SF-539 = tested on: SF-539
KM-20L2 = tested on: KM-20L2
LXFL 529 = tested on: LXFL 529
MOLT-4 = tested on: MOLT-4
UACC-257 = tested on: UACC-257
OVCAR-3 = tested on: OVCAR-3
TK-10 = tested on: TK-10
SK-MEL-2 = tested on: SK-MEL-2
HCT-15 = tested on: HCT-15
NCI-H522 = tested on: NCI-H522
CAKI-1 = tested on: CAKI-1
HOP-92 = tested on: HOP-92
SK-MEL-5 = tested on: SK-MEL-5

SMILES: CC1=CC(C)(c2c[nH]c3ccccc23)CC(C)(C)c2c1[nH]c1ccccc21 (stereo not given)
- GI50 (SW-620): 16.9 µM (inactive)
- GI50 (SR): 12.5 µM (inactive)
- GI50 (SNB-78): 28.2 µM (inactive)
- GI50 (786-0): 13.8 µM (inactive)
- GI50 (SNB-75): 26.7 µM (inactive)
- GI50 (UACC-62): 15.2 µM (inactive)
- GI50 (M19-MEL): 19.7 µM (inactive)
- GI50 (HCT-116): 11.9 µM (inactive)
- GI50 (XF498): 20.6 µM (inactive)
- GI50 (LOX IMVI): 15.2 µM (inactive)
- GI50 (ACHN): 17.2 µM (inactive)
- GI50 (Malme-3M): 16.6 µM (inactive)
- GI50 (SNB-19): 26.5 µM (inactive)
- GI50 (HCC 2998): 14.5 µM (inactive)
- GI50 (HT-29): 12.9 µM (inactive)
- GI50 (SK-MEL-28): 14.5 µM (inactive)
- GI50 (NCI-H226): 18.6 µM (inactive)
- GI50 (NCI-H23): 14.4 µM (inactive)
- GI50 (OVCAR-4): 13.4 µM (inactive)
- GI50 (OVCAR-5): 18 µM (inactive)
- GI50 (DLD-1): 13.7 µM (inactive)
- GI50 (DMS-114): 14.9 µM (inactive)
- GI50 (U-251): 15.9 µM (inactive)
- GI50 (UO-31): 13.2 µM (inactive)
- GI50 (NCI-H460): 17 µM (inactive)
- GI50 (EKVX): 15.6 µM (inactive)
- GI50 (HOP-62): 22.8 µM (inactive)
- GI50 (RPMI-8226): 11.9 µM (inactive)
- GI50 (SF-268): 25.1 µM (inactive)
- GI50 (A498): 17.7 µM (inactive)
- GI50 (A549): 14 µM (inactive)
- GI50 (SN12C): 14.3 µM (inactive)
- GI50 (HL-60): 6.46 µM (inactive)
- GI50 (IGROV-1): 16.2 µM (inactive)
- GI50 (OVCAR-8): 13.7 µM (inactive)
- GI50 (SF-295): 14.5 µM (inactive)
- GI50 (CCRF-CEM): 9.55 µM (inactive)
- GI50 (K562): 11.9 µM (inactive)
- GI50 (KM12): 23.7 µM (inactive)
- GI50 (SK-OV-3): 28.6 µM (inactive)
- GI50 (RXF 631): 14.5 µM (inactive)
- GI50 (HOP-18): > 100 µM (inactive)
- GI50 (M14): 17.9 µM (inactive)
- GI50 (RXF 393): 12.4 µM (inactive)
- GI50 (SF-539): 43.2 µM (inactive)
- GI50 (KM-20L2): 14.8 µM (inactive)
- GI50 (LXFL 529): 30.1 µM (inactive)
- GI50 (MOLT-4): 6.93 µM (inactive)
- GI50 (UACC-257): 20.3 µM (inactive)
- GI50 (OVCAR-3): 14 µM (inactive)
- GI50 (TK-10): 43.1 µM (inactive)

SMILES: O=C(O)CSc1nnc(Cc2ccccc2)[nH]1
- GI50 (SK-MEL-2): > 100 µM (inactive)
- GI50 (SW-620): > 100 µM (inactive)
- GI50 (SR): > 100 µM (inactive)
- GI50 (SNB-78): > 100 µM (inactive)
- GI50 (786-0): > 100 µM (inactive)
- GI50 (UACC-62): > 100 µM (inactive)
- GI50 (M19-MEL): > 100 µM (inactive)
- GI50 (HCT-116): > 100 µM (inactive)
- GI50 (XF498): 15.7 µM (inactive)
- GI50 (LOX IMVI): > 100 µM (inactive)
- GI50 (ACHN): > 100 µM (inactive)
- GI50 (Malme-3M): > 100 µM (inactive)
- GI50 (SNB-19): > 100 µM (inactive)
- GI50 (HCT-15): > 100 µM
- GI50 (HCC 2998): > 100 µM (inactive)
- GI50 (HT-29): > 100 µM (inactive)
- GI50 (SK-MEL-28): > 100 µM (inactive)
- GI50 (NCI-H226): > 100 µM (inactive)
- GI50 (NCI-H23): > 100 µM (inactive)
- GI50 (OVCAR-4): > 100 µM (inactive)
- GI50 (OVCAR-5): > 100 µM (inactive)
- GI50 (NCI-H522): > 100 µM (inactive)
- GI50 (DLD-1): > 100 µM (inactive)
- GI50 (DMS-114): > 100 µM (inactive)
- GI50 (U-251): > 100 µM (inactive)
- GI50 (UO-31): > 100 µM (inactive)
- GI50 (NCI-H460): > 100 µM (inactive)
- GI50 (EKVX): > 100 µM (inactive)
- GI50 (HOP-62): > 100 µM (inactive)
- GI50 (RPMI-8226): > 100 µM (inactive)
- GI50 (SF-268): > 100 µM (inactive)
- GI50 (A549): > 100 µM (inactive)
- GI50 (SN12C): > 100 µM (inactive)
- GI50 (HL-60): > 100 µM (inactive)
- GI50 (IGROV-1): > 100 µM (inactive)
- GI50 (CAKI-1): > 100 µM (inactive)
- GI50 (HOP-92): > 100 µM (inactive)
- GI50 (OVCAR-8): > 100 µM (inactive)
- GI50 (SF-295): > 100 µM (inactive)
- GI50 (CCRF-CEM): > 100 µM (inactive)
- GI50 (K562): > 100 µM (inactive)
- GI50 (KM12): > 100 µM (inactive)
- GI50 (SK-OV-3): > 100 µM (inactive)
- GI50 (RXF 631): > 100 µM (inactive)
- GI50 (HOP-18): > 100 µM (inactive)
- GI50 (M14): > 100 µM (inactive)
- GI50 (RXF 393): > 100 µM (inactive)
- GI50 (SF-539): > 100 µM (inactive)
- GI50 (LXFL 529): > 100 µM (inactive)
- GI50 (MOLT-4): > 100 µM (inactive)
- GI50 (UACC-257): > 100 µM (inactive)
- GI50 (SK-MEL-5): > 100 µM (inactive)
- GI50 (OVCAR-3): > 100 µM (inactive)
- GI50 (TK-10): > 100 µM (inactive)
